From patent publication US10004702B2, “Linear guanidine derivatives, methods of preparation and uses thereof” (LEAD DISCOVERY SIENA S.R.L., priority 2014, dated 2018)
Converted amounts (≈) assume the structure as drawn.

How the values were obtained:
Test in all cases: Bactericidal activity (MBC)
Format in all cases: cell-based
[1] = system: Staphylococcus aureus ATCC 25923; conditions: ATCC25923
[2] = system: Burkholderia cepacia RII
[3] = system: Acinetobacter baumannii AC-54/97 (IMP-2)
[4] = system: Klebsiella pneumoniae 081R

N=C(N)NCCCCCCCCN(CCCCCCCCNC(=N)NCC1CC1)C(=O)N(CCCCCCCCNC(=N)N)CCCCCCCCNC(=N)NCC1CC1 [Compound 28, 1,3-bis(8-(3-(cyclopropylmethyl)guanidino)octyl)-1,3-bis(8-guanidinooctyl)urea]
MBC [1]: 2 µg/mL (≈ 2.37 µM)
MBC [2]: 8 µg/mL (≈ 9.46 µM)
MBC [3]: 2 µg/mL (≈ 2.37 µM)
MBC [4]: 2 µg/mL (≈ 2.37 µM)
